Source: patent US10774064B2 (Cadent Therapeutics, Inc., priority 2016, dated 2020)

Target: T1, small-conductance Ca2+-activated K+ channels (SK channels, subtype 2) (Homo sapiens, UniProt Q9H2S1)
T1 construct: expressed in transfected cells; host or cells: HEK293
Assay: whole-cell patch-clamp of ionic current through SK2 channels in HEK293 cells (SC100)
Assay type: cell-based
Details: concentration that increases the basal current by 100%; HEK293 cells expressing SK2 channels
Outline: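 SC100, the concentration doubling basal current (a 100% increase), was taken from SK2 currents recorded by whole-cell patch-clamp in SK2-expressing HEK293 cells.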

SC100 | SMILES
++ (++ means 200 nM-1000 nM) | CCc1csc(-c2nc(C)cc(NC3CCC(F)(F)CC3)n2)n1 [Compound 279, N-(4,4-difluorocyclohexyl)-2-(4-ethylthiazol-2-yl)-6-methylpyrimidin-4-amine]
+ (+ means >1 uM) | FCc1ccn(-c2nc(NC3CCC(F)(F)CC3)cc(N3CCOCC3)n2)n1 [Compound 280, N-(4,4-difluorocyclohexyl)-2-(3-(fluoromethyl)-1H-pyrazol-1-yl)-6-morpholinopyrimidin-4-amine]
++ (++ means 200 nM-1000 nM) | Cc1cn(-c2nc(NC3CCC(F)(F)CC3)cc(N3CCOCC3)n2)nc1CF [Compound 281, N-(4,4-difluorocyclohexyl)-2-(3-(fluoromethyl)-4-methyl-1H-pyrazol-1-yl)-6-morpholinopyrimidin-4-amine]
+ (+ means >1 uM) | Cc1cn(-c2nc(NC3CCC(F)(F)CC3)cc(N3CCOCC3)n2)nc1C(F)F [Compound 282, N-(4,4-difluorocyclohexyl)-2-(3-(difluoromethyl)-4-methyl-1H-pyrazol-1-yl)-6-morpholinopyrimidin-4-amine]
++ (++ means 200 nM-1000 nM) | FCc1ccn(-c2nc(NC3CCC(F)(F)CC3)cc(N3CCSCC3)n2)n1 [Compound 284, N-(4,4-difluorocyclohexyl)-2-(3-(fluoromethyl)-1H-pyrazol-1-yl)-6-thiomorpholinopyrimidin-4-amine]
+ (+ means >1 uM) | FCc1ccn(-c2nc(NC3CCC(F)(F)CC3)cc(OC3COC3)n2)n1 [Compound 285, N-(4,4-difluorocyclohexyl)-2-(3-(fluoromethyl)-1H-pyrazol-1-yl)-6-(oxetan-3-yloxy)pyrimidin-4-amine]
+++ (+++ means <200 nM) | Cn1cnc2c(NC3CCC(F)(F)CC3)nc(-n3ccc(CF)n3)cc21 [Compound 286, N-(4,4-difluorocyclohexyl)-6-(3-(fluoromethyl)-1H-pyrazol-1-yl)-1-methyl-1H-imidazo[4,5-c]pyridin-4-amine]
++ (++ means 200 nM-1000 nM) | CCOC(=O)N1CC(Oc2cc(NC3CCC(F)(F)CC3)nc(-n3ccc(CF)n3)n2)C1 [Compound 287, ethyl 3-((6-((4,4-difluorocyclohexyl)amino)-2-(3-(fluoromethyl)-1H-pyrazol-1-yl)pyrimidin-4-yl)oxy)azetidine-1-carboxylate]
++ (++ means 200 nM-1000 nM) | CCC(=O)N1CC(Oc2cc(NC3CCC(F)(F)CC3)nc(-n3ccc(CF)n3)n2)C1 [Compound 288, 1-(3-((6-((4,4-difluorocyclohexyl)amino)-2-(3-(fluoromethyl)-1H-pyrazol-1-yl)pyrimidin-4-yl)oxy)azetidin-1-yl)propan-1-one]
++ (++ means 200 nM-1000 nM) | CC(=O)N1CC(Oc2cc(NC3CCC(F)(F)CC3)nc(-n3ccc(CF)n3)n2)C1 [Compound 289, 1-(3-((6-((4,4-difluorocyclohexyl)amino)-2-(3-(fluoromethyl)-1H-pyrazol-1-yl)pyrimidin-4-yl)oxy)azetidin-1-yl)ethan-1-one]
++ (++ means 200 nM-1000 nM) | CC(C)C(=O)N1CC(Oc2cc(NC3CCC(F)(F)CC3)nc(-n3ccc(CF)n3)n2)C1 [Compound 290, 1-(3-((6-((4,4-difluorocyclohexyl)amino)-2-(3-(fluoromethyl)-1H-pyrazol-1-yl)pyrimidin-4-yl)oxy)azetidin-1-yl)-2-methylpropan-1-one]
++ (++ means 200 nM-1000 nM) | COC(=O)N1CC(Oc2cc(NC3CCC(F)(F)CC3)nc(-n3ccc(CF)n3)n2)C1 [Compound 291, methyl 3-((6-((4,4-difluorocyclohexyl)amino)-2-(3-(fluoromethyl)-1H-pyrazol-1-yl)pyrimidin-4-yl)oxy)azetidine-1-carboxylate]
++ (++ means 200 nM-1000 nM) | CC(C)(C)C(=O)N1CC(Oc2cc(NC3CCC(F)(F)CC3)nc(-n3ccc(CF)n3)n2)C1 [Compound 293, 1-(3-((6-((4,4-difluorocyclohexyl)amino)-2-(3-(fluoromethyl)-1H-pyrazol-1-yl)pyrimidin-4-yl)oxy)azetidin-1-yl)-2,2-dimethylpropan-1-one]
++ (++ means 200 nM-1000 nM) | CC1CN(c2cc(NC3CCC(F)(F)CC3)nc(-n3ccc(CF)n3)n2)CC(C)O1 (stereo not drawn) [Compound 294, N-(4,4-difluorocyclohexyl)-6-(2,6-dimethylmorpholino)-2-(3-(fluoromethyl)-1H-pyrazol-1-yl)pyrimidin-4-amine]
++ (++ means 200 nM-1000 nM) | COC(=O)N1CC(Oc2cc(NC3CCC(F)(F)CC3)nc(-n3ccc(C(F)F)n3)n2)C1 [Compound 295, methyl 3-((6-((4,4-difluorocyclohexyl)amino)-2-(3-(difluoromethyl)-1H-pyrazol-1-yl)pyrimidin-4-yl)oxy)azetidine-1-carboxylate]
++ (++ means 200 nM-1000 nM) | CC(C)OC(=O)N1CC(Oc2cc(NC3CCC(F)(F)CC3)nc(-n3ccc(CF)n3)n2)C1 [Compound 296, isopropyl3-((6-((4,4-difluorocyclohexyl)amino)-2-(3-(fluoromethyl)-1H-pyrazol-1-yl)pyrimidin-4-yl)oxy)azetidine-1-carboxylate]
++ (++ means 200 nM-1000 nM) | COC(=O)N1CCC(Oc2cc(NC3CCC(F)(F)CC3)nc(-n3ccc(CF)n3)n2)C1 (stereo not drawn) [Compound 297, methyl 3-((6-((4,4-difluorocyclohexyl)amino)-2-(3-(fluoromethyl)-1H-pyrazol-1-yl)pyrimidin-4-yl)oxy)pyrrolidine-1-carboxylate]
++ (++ means 200 nM-1000 nM) | CC(C)(C)C(=O)N1CC(Oc2cc(NC3CCC(F)(F)CC3)nc(-n3ccc(C(F)F)n3)n2)C1 [Compound 298, 1-(3-((6-((4,4-difluorocyclohexyl)amino)-2-(3-(difluoromethyl)-1H-pyrazol-1-yl)pyrimidin-4-yl)oxy)azetidin-1-yl)-2,2-dimethylpropan-1-one]
++ (++ means 200 nM-1000 nM) | O=C(N1CC(Oc2cc(NC3CCC(F)(F)CC3)nc(-n3ccc(C(F)F)n3)n2)C1)C(F)(F)F [Compound 299, 1-(3-((6-((4,4-difluorocyclohexyl)amino)-2-(3-(difluoromethyl)-1H-pyrazol-1-yl)pyrimidin-4-yl)oxy)azetidin-1-yl)-2,2,2-trifluoroethan-1-one]
+ (+ means >1 uM) | Cc1cc(C)n(Cc2cc(NC3CCC(F)(F)CC3)nc(-n3ccc(CF)n3)n2)n1 [Compound 300, N-(4,4-difluorocyclohexyl)-6-((3,5-dimethyl-1H-pyrazol-1-yl)methyl)-2-(3-(fluoromethyl)-1H-pyrazol-1-yl)pyrimidin-4-amine]
++ (++ means 200 nM-1000 nM) | CC(=O)NCc1cc(NC2CCC(F)(F)CC2)nc(-n2ccc(C(F)F)n2)c1 [Compound 301, N-((2-((4,4-difluorocyclohexyl)amino)-6-(3-(difluoromethyl)-1H-pyrazol-1-yl)pyridin-4-yl)methyl)acetamide]
++ (++ means 200 nM-1000 nM) | FCc1ccn(-c2cc(OC3COC3)cc(NC3CCC(F)(F)CC3)n2)n1 [Compound 302, N-(4,4-difluorocyclohexyl)-6-(3-(fluoromethyl)-1H-pyrazol-1-yl)-4-(oxetan-3-yloxy)pyridin-2-amine]
++ (++ means 200 nM-1000 nM) | Cc1cn(-c2nc(NC3CCC(F)(F)CC3)cc(OC3COC3)n2)nc1CF [Compound 304, N-(4,4-difluorocyclohexyl)-2-(3-(fluoromethyl)-4-methyl-1H-pyrazol-1-yl)-6-(oxetan-3-yloxy)pyrimidin-4-amine]
++ (++ means 200 nM-1000 nM) | COC(=O)N1CCC(Oc2cc(NC3CCC(F)(F)CC3)nc(-n3ccc(C(F)F)n3)n2)C1 (stereo not drawn) [Compound 305, methyl 3-((6-((4,4-difluorocyclohexyl)amino)-2-(3-(difluoromethyl)-1H-pyrazol-1-yl)pyrimidin-4-yl)oxy)pyrrolidine-1-carboxylate]
+ (+ means >1 uM) | COC(=O)N1CCC1COc1cc(NC2CCC(F)(F)CC2)nc(-n2ccc(CF)n2)n1 (stereo not drawn) [Compound 306, methyl 2-(((6-((4,4-difluorocyclohexyl)amino)-2-(3-(fluoromethyl)-1H-pyrazol-1-yl)pyrimidin-4-yl)oxy)methyl)azetidine-1-carboxylate]
+ (+ means >1 uM) | COC(=O)N1CC(Oc2cc(NC3CCC(F)(F)CC3)nc(-n3ccc(C(C)O)n3)n2)C1 (stereo not drawn) [Compound 307, methyl 3-((6-((4,4-difluorocyclohexyl)amino)-2-(3-(1-hydroxyethyl)-1H-pyrazol-1-yl)pyrimidin-4-yl)oxy)azetidine-1-carboxylate]
+ (+ means >1 uM) | CN(C)C(=O)C1CC1c1cc(NC2CCC(F)(F)CC2)nc(-n2ccc(CF)n2)n1 (stereo not drawn) [Compound 308, 2-(6-((4,4-difluorocyclohexyl)amino)-2-(3-(fluoromethyl)-1H-pyrazol-1-yl)pyrimidin-4-yl)-N,N-dimethylcyclopropane-1-carboxamide]
++ (++ means 200 nM-1000 nM) | Cc1cn(-c2nc(NC3CCC(F)(F)CC3)cc(OC3CN(C(=O)C(C)(C)C)C3)n2)nc1CF [Compound 309, 1-(3-((6-((4,4-difluorocyclohexyl)amino)-2-(3-(fluoromethyl)-4-methyl-1H-pyrazol-1-yl)pyrimidin-4-yl)oxy)azetidin-1-yl)-2,2-dimethylpropan-1-one]
++ (++ means 200 nM-1000 nM) | COC(=O)N1CC(Oc2cc(NC3CCC(F)(F)CC3)nc(-n3cc(C)c(CF)n3)n2)C1 [Compound 310, methyl 3-((6-((4,4-difluorocyclohexyl)amino)-2-(3-(fluoromethyl)-4-methyl-1H-pyrazol-1-yl)pyrimidin-4-yl)oxy)azetidine-1-carboxylate]
++ (++ means 200 nM-1000 nM) | CC(=O)NCc1cc(NC2CCC(F)(F)CC2)nc(-n2ccc(CF)n2)c1 [Compound 312, N-((2-((4,4-difluorocyclohexyl)amino)-6-(3-(fluoromethyl)-1H-pyrazol-1-yl)pyridin-4-yl)methyl)acetamide]
